Tests used:
crabgrass = test: Test A pre-/postemergence greenhouse test; format: in vivo, Digitaria sanguinalis; settings: for Crabgrass, Large plant response rating: 0 to 100 scale; for Plant response rating, Crabgrass, Large: 0 to 100 scale where 0 is no effect and 100 is complete control
In short: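 Pots of loam–sand soil sown with the test species are sprayed preemergence on the soil surface; emerged seedlings (1–2 leaves, 2–10 cm) are sprayed postemergence at the same time. The vehicle is a non-phytotoxic solvent mixture with surfactant. Injury is scored visually after ~10 d in greenhouse.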

downy brome = test: Test C pre-/postemergence test; format: in vivo, Bromus tectorum; settings: for Plant response rating (0 to 100), Bromegrass, Downy: 250 g ai/ha
In short: (§1)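 Test chemicals were formulated with surfactant in a non-phytotoxic solvent and sprayed both on freshly planted seeds (preemergence) and on 1- to 4-leaf plants of 2–18 cm (postemergence). Flooded-paddy pots received compound directly into 3 cm of standing water, maintained for the test.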

catchweed bedstraw = test: Test C pre-/postemergence test; format: in vivo, Galium aparine; settings: for Plant response rating (0 to 100), Galium: 250 g ai/ha
In short: as §1

Surinam grass = test: Test F preemergence test; format: in vivo, Brachiaria decumbens; settings: scale 0 to 100; for Plant response rating, Surinam Grass: 31 g ai/ha
In short: (§2)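 Test chemicals in a non-phytotoxic solvent mixture containing a surfactant were applied preemergence to sown seeds or postemergence to sugarcane plants. Treated plants and controls were held in a greenhouse for 14 to 21 days, then visually evaluated against controls.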

large crabgrass = test: Test F preemergence test; format: in vivo, Digitaria sanguinalis; settings: scale 0 to 100
In short: as §2

green foxtail = test: Test F preemergence test; format: in vivo, Setaria viridis; settings: scale 0 to 100
In short: as §2

goosegrass = test: Test F preemergence test; format: in vivo, Eleusine indica; settings: scale 0 to 100
In short: as §2

johnsongrass = test: Test F preemergence test; format: in vivo, Sorghum halepense; settings: scale 0 to 100
In short: as §2

common ragweed = test: Test F preemergence test; format: in vivo, Ambrosia elation; settings: scale 0 to 100
In short: as §2

southern sandbur = test: Test F preemergence test; format: in vivo, Cenchrus echinatus; settings: scale 0 to 100; for Plant response rating, Sandbur: 31 g ai/ha
In short: as §2

Italian ryegrass = test: Test F preemergence test; format: in vivo, Lolium multiflorum; settings: scale 0 to 100
In short: as §2

itchgrass = test: Test F preemergence test; format: in vivo, Rottboellia cochinchinensis; settings: scale 0 to 100
In short: as §2

field bindweed = test: Test F preemergence test; format: in vivo, Convolvulus arvensis; settings: scale 0 to 100
In short: as §2

[1] = Postemergence, 125 g ai/ha, 0 is no effect, 100 is complete control
[2] = Postemergence, 500 g ai/ha, 0 is no effect, 100 is complete control
[3] = Preemergence, 125 g ai/ha, 0 no effect, 100 complete control
[4] = 62 g ai/ha, Preemergence, scale 0 to 100
[5] = Preemergence, 31 g ai/ha, scale 0 to 100 (0 no effect, 100 complete control)
[6] = preemergence, 125 g ai/ha, scale 0 (no effect) to 100 (complete control)
[7] = 31 g ai/ha, Preemergence, scale 0 to 100
[8] = 62 g ai/ha, preemergence, scale 0 (no effect) to 100 (complete control)

## Cc1cc[n+]([O-])c([S+]([O-])Cc2c(C(F)(F)F)nn(C)c2OCC(F)(F)F)c1 (racemic) [Compound 30]
crabgrass; [1]
  Crabgrass, Large plant response rating: 70
crabgrass; [2]
  Crabgrass, Large plant response rating: 90
crabgrass; [3]
  Crabgrass, Large plant response rating: 100
crabgrass; Preemergence, 500 g ai/ha
  Plant response rating, Crabgrass, Large: 100
Downy brome; [4]
  Bromegrass, Downy plant response rating: 0
Downy brome; [5]
  Plant response rating, Bromegrass, Downy: 0
Downy brome; Preemergence
  Plant response rating (0 to 100), Bromegrass, Downy: 60
Downy brome; [6]
  Bromegrass, Downy plant response rating: 60
Catchweed bedstraw; [4]
  Galium plant response rating: 100
Catchweed bedstraw; [5]
  Plant response rating, Galium: 100
Catchweed bedstraw; Preemergence
  Plant response rating (0 to 100), Galium: 100
Surinam grass; 62 g ai/ha, Preemergence
  Surinam Grass plant response rating: 80
Surinam grass; 125 g ai/ha, preemergence
  Surinam Grass plant response rating: 100
Surinam grass; Preemergence
  Plant response rating, Surinam Grass: 75
Large crabgrass; 62 g ai/ha, Preemergence
  Crabgrass, Large plant response rating: 100
Large crabgrass; 125 g ai/ha, preemergence
  Crabgrass, Large plant response rating: 100
Large crabgrass; Preemergence, 16 g ai/ha
  Plant response rating, Crabgrass, Large: 40
Large crabgrass; Preemergence, 31 g ai/ha
  Plant response rating, Crabgrass, Large: 50
Green foxtail; 62 g ai/ha, Preemergence
  Foxtail, Green plant response rating: 75
Green foxtail; 125 g ai/ha, preemergence
  Foxtail, Green plant response rating: 100
Green foxtail; Preemergence, 16 g ai/ha
  Plant response rating, Foxtail, Green: 15
Green foxtail; Preemergence, 31 g ai/ha
  Plant response rating, Foxtail, Green: 25
goosegrass; 62 g ai/ha, Preemergence
  Goosegrass plant response rating: 90
goosegrass; 125 g ai/ha, preemergence
  Goosegrass plant response rating: 98
goosegrass; Preemergence, 16 g ai/ha
  Plant response rating, Goosegrass: 40
goosegrass; Preemergence, 31 g ai/ha
  Plant response rating, Goosegrass: 75
johnsongrass; 62 g ai/ha, Preemergence
  Johnsongrass plant response rating: 80
johnsongrass; 125 g ai/ha, preemergence
  Johnsongrass plant response rating: 100
johnsongrass; Preemergence, 16 g ai/ha
  Plant response rating, Johnsongrass: 40
johnsongrass; Preemergence, 31 g ai/ha
  Plant response rating, Johnsongrass: 60
Common ragweed; 62 g ai/ha, Preemergence
  Ragweed plant response rating: 80
Common ragweed; 125 g ai/ha, preemergence
  Ragweed plant response rating: 95
Common ragweed; Preemergence, 16 g ai/ha
  Plant response rating, Ragweed: 50
Common ragweed; Preemergence, 31 g ai/ha
  Plant response rating, Ragweed: 60
Southern sandbur; 62 g ai/ha, Preemergence
  Sandbur plant response rating: 100
Southern sandbur; 125 g ai/ha, preemergence
  Sandbur plant response rating: 100
Southern sandbur; Preemergence
  Plant response rating, Sandbur: 50
Italian ryegrass; 62 g ai/ha, Preemergence
  Ryegrass, Italian plant response rating: 80
Italian ryegrass; 125 g ai/ha, preemergence
  Ryegrass, Italian plant response rating: 95
Italian ryegrass; Preemergence, 16 g ai/ha
  Plant response rating, Ryegrass, Italian: 60
Italian ryegrass; Preemergence, 31 g ai/ha
  Plant response rating, Ryegrass, Italian: 70
itchgrass; 62 g ai/ha, Preemergence
  Itchgrass plant response rating: 70
itchgrass; 125 g ai/ha, preemergence
  Itchgrass plant response rating: 85
itchgrass; Preemergence, 16 g ai/ha
  Plant response rating, Itchgrass: 20
itchgrass; Preemergence, 31 g ai/ha
  Plant response rating, Itchgrass: 25
Field bindweed; 62 g ai/ha, Preemergence
  Field Bindweed plant response rating: 75
Field bindweed; 125 g ai/ha, preemergence
  Field Bindweed plant response rating: 75
Field bindweed; Preemergence, 16 g ai/ha
  Plant response rating, Field Bindweed: 50
Field bindweed; Preemergence, 31 g ai/ha
  Plant response rating, Field Bindweed: 50

## Cc1cc[n+]([O-])c(S(=O)(=O)C(C)c2c(C(F)(F)F)nn(C)c2OC(F)F)c1 (stereo not drawn) [Compound 11]
crabgrass; [1]
  Crabgrass, Large plant response rating: 70
crabgrass; [2]
  Crabgrass, Large plant response rating: 80
crabgrass; [3]
  Crabgrass, Large plant response rating: 90
crabgrass; Preemergence, 500 g ai/ha
  Plant response rating, Crabgrass, Large: 100
Downy brome; [7]
  Bromegrass, Downy plant response rating: 0
Downy brome; [8]
  Bromegrass, Downy plant response rating: 10
Downy brome; Preemergence
  Plant response rating (0 to 100), Bromegrass, Downy: 60
Downy brome; [6]
  Bromegrass, Downy plant response rating: 50
Catchweed bedstraw; [7]
  Galium plant response rating: 50
Catchweed bedstraw; [8]
  Galium plant response rating: 100
Catchweed bedstraw; Preemergence
  Plant response rating (0 to 100), Galium: 100
Catchweed bedstraw; [6]
  Galium plant response rating: 100
Surinam grass; 62 g ai/ha, Preemergence
  Surinam Grass plant response rating: 100
Surinam grass; 125 g ai/ha, preemergence
  Surinam Grass plant response rating: 100
Surinam grass; Preemergence
  Plant response rating, Surinam Grass: 98
Large crabgrass; 62 g ai/ha, Preemergence
  Crabgrass, Large plant response rating: 98
Large crabgrass; 125 g ai/ha, preemergence
  Crabgrass, Large plant response rating: 100
Large crabgrass; Preemergence, 16 g ai/ha
  Plant response rating, Crabgrass, Large: 60
Large crabgrass; Preemergence, 31 g ai/ha
  Plant response rating, Crabgrass, Large: 80
Green foxtail; 62 g ai/ha, Preemergence
  Foxtail, Green plant response rating: 80
Green foxtail; 125 g ai/ha, preemergence
  Foxtail, Green plant response rating: 90
Green foxtail; Preemergence, 16 g ai/ha
  Plant response rating, Foxtail, Green: 5
Green foxtail; Preemergence, 31 g ai/ha
  Plant response rating, Foxtail, Green: 35
goosegrass; 62 g ai/ha, Preemergence
  Goosegrass plant response rating: 98
goosegrass; 125 g ai/ha, preemergence
  Goosegrass plant response rating: 100
goosegrass; Preemergence, 16 g ai/ha
  Plant response rating, Goosegrass: 70
goosegrass; Preemergence, 31 g ai/ha
  Plant response rating, Goosegrass: 90
johnsongrass; 62 g ai/ha, Preemergence
  Johnsongrass plant response rating: 90
johnsongrass; 125 g ai/ha, preemergence
  Johnsongrass plant response rating: 95
johnsongrass; Preemergence, 16 g ai/ha
  Plant response rating, Johnsongrass: 70
johnsongrass; Preemergence, 31 g ai/ha
  Plant response rating, Johnsongrass: 70
Common ragweed; 62 g ai/ha, Preemergence
  Ragweed plant response rating: 75
Common ragweed; 125 g ai/ha, preemergence
  Ragweed plant response rating: 100
Common ragweed; Preemergence, 16 g ai/ha
  Plant response rating, Ragweed: 30
Common ragweed; Preemergence, 31 g ai/ha
  Plant response rating, Ragweed: 65
Southern sandbur; 62 g ai/ha, Preemergence
  Sandbur plant response rating: 100
Southern sandbur; 125 g ai/ha, preemergence
  Sandbur plant response rating: 100
Southern sandbur; Preemergence
  Plant response rating, Sandbur: 95
Italian ryegrass; 62 g ai/ha, Preemergence
  Ryegrass, Italian plant response rating: 75
Italian ryegrass; 125 g ai/ha, preemergence
  Ryegrass, Italian plant response rating: 95
Italian ryegrass; Preemergence, 16 g ai/ha
  Plant response rating, Ryegrass, Italian: 35
Italian ryegrass; Preemergence, 31 g ai/ha
  Plant response rating, Ryegrass, Italian: 50
itchgrass; 62 g ai/ha, Preemergence
  Itchgrass plant response rating: 70
itchgrass; 125 g ai/ha, preemergence
  Itchgrass plant response rating: 95
itchgrass; Preemergence, 16 g ai/ha
  Plant response rating, Itchgrass: 0
itchgrass; Preemergence, 31 g ai/ha
  Plant response rating, Itchgrass: 40
Field bindweed; 62 g ai/ha, Preemergence
  Field Bindweed plant response rating: 60
Field bindweed; 125 g ai/ha, preemergence
  Field Bindweed plant response rating: 75
Field bindweed; Preemergence, 16 g ai/ha
  Plant response rating, Field Bindweed: 0
Field bindweed; Preemergence, 31 g ai/ha
  Plant response rating, Field Bindweed: 0

Reference: patent US20100298141A1, “SUBSTITUTED PYRIDINE N-OXIDE HERBICIDES” (E. I. DU PONT DE NEMOURS AND COMPANY, priority 2007, published 2010)
